≈ marks a conversion by molar mass, not a printed value. Calls of active or inactive are those of the source. No cut-off for these calls is given here.
Experiments:
[1] = tested on: Aspergillus flavus; test: Antifungal activity against Aspergillus flavus assessed as reduction in fungal cell growth incubated for 48 hrs by serial dilution method; type: functional
[2] = tested on: Fusarium oxysporum f. sp. vasinfectum; test: Antifungal activity against Fusarium oxysporum sp. vasinfectum assessed as reduction in fungal cell growth incubated for 48 hrs by serial dilution method; type: functional
[3] = tested on: Fusarium oxysporum; test: Antifungal activity against Fusarium oxysporum assessed as reduction in fungal cell growth incubated for 48 hrs by serial dilution method; type: functional
[4] = tested on: Penicillium citrinum; test: Antifungal activity against Penicillium citrinum assessed as reduction in fungal cell growth incubated for 48 hrs by serial dilution method; type: functional
[5] = target: Acetylcholinesterase (Electrophorus electricus, UniProt O42275); test: Inhibition of electric eel AChE by Ellman's colorimetry
[6] = tested on: Verticillium dahliae; test: Antifungal activity against Verticillium dahliae assessed as reduction in fungal cell growth incubated for 48 hrs by serial dilution method; type: functional
[7] = tested on: Ralstonia solanacearum; test: Antibacterial activity against Ralstonia solanacearum assessed as reduction in bacterial cell growth incubated for 24 hrs by filter paper assay; type: functional
[8] = tested on: Aspergillus niger; test: Antifungal activity against Aspergillus niger assessed as reduction in fungal cell growth incubated for 48 hrs by serial dilution method; type: functional
[9] = tested on: Cryptococcus neoformans; test: Antifungal activity against Cryptococcus neoformans assessed as reduction in fungal cell growth incubated for 48 hrs by serial dilution method; type: functional
[10] = tested on: Bacillus cereus; test: Antibacterial activity against Bacillus cereus assessed as reduction in bacterial cell growth incubated for 24 hrs by filter paper assay; type: functional
[11] = tested on: Candida tropicalis; test: Antifungal activity against Candida tropicalis assessed as reduction in fungal cell growth incubated for 48 hrs by serial dilution method; type: functional
[12] = tested on: Candida; test: Antifungal activity against […] assessed as reduction in fungal cell growth incubated for 48 hrs by serial dilution method; type: functional
[13] = tested on: Curvularia lunata; test: Antifungal activity against Curvularia lunata assessed as reduction in fungal cell growth incubated for 48 hrs by serial dilution method; type: functional
[14] = tested on: Cytospora; test: Antifungal activity against Cytospora juglandis assessed as reduction in fungal cell growth incubated for 48 hrs by serial dilution method; type: functional
[15] = tested on: Staphylococcus aureus; test: Antibacterial activity against Staphylococcus aureus assessed as reduction in bacterial cell growth incubated for 24 hrs by filter paper assay; type: functional
[16] = tested on: Pseudomonas aeruginosa; test: Antibacterial activity against Pseudomonas aeruginosa assessed as reduction in bacterial cell growth incubated for 24 hrs by filter paper assay; type: functional
[17] = tested on: Escherichia coli; test: Antibacterial activity against Escherichia coli assessed as reduction in bacterial cell growth incubated for 24 hrs by filter paper assay; type: functional
[18] = tested on: Colletotrichum orbiculare; test: Antifungal activity against Colletotrichum orbiculare assessed as reduction in fungal cell growth incubated for 48 hrs by serial dilution method; type: functional

Chain of Acetylcholinesterase (O42275 whole entry): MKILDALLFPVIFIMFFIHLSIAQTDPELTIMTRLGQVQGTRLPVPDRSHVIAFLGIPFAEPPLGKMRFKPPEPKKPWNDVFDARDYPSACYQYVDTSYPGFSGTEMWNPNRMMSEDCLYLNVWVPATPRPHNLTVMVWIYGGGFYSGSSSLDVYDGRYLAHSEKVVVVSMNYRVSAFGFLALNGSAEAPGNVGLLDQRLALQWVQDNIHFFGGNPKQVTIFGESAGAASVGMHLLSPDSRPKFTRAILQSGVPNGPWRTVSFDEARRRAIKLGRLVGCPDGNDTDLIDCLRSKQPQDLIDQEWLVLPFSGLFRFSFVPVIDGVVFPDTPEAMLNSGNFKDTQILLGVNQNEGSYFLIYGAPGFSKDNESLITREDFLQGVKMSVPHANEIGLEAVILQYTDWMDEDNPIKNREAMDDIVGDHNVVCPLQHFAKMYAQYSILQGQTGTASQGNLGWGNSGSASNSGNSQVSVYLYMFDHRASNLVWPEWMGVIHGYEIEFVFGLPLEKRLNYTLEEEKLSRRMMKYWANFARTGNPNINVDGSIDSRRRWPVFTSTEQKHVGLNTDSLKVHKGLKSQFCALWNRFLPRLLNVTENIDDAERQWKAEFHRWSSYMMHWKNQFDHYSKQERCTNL

Structure (SMILES) | MIC [1] | MIC [2] | MIC [3] | MIC [4] | IC50 [5] [µM] | MIC [6] [µg/mL] | MIC [7] | MIC [8] | MIC [9] | MIC [10] | MIC [11] | MIC [12] | MIC [13] | MIC [14] | MIC [15] | MIC [16] | MIC [17] | MIC [18]
CN1c2ccccc2C2(O)CCCN(C(=O)c3cccc(F)c3)C12 (stereo not drawn) | inactive | inactive | inactive | inactive | 0.337 | 250 (≈ 766 µM) | 250 µg/mL (≈ 766 µM) | inactive | inactive | inactive | inactive | inactive | inactive | inactive | inactive | 250 µg/mL (≈ 766 µM) | 250 µg/mL (≈ 766 µM) | inactive
Cc1ccccc1CN1c2ccccc2C2(Cc3ccccc3C)CCN(C(=O)C(F)(F)F)C12 (stereo not drawn) | 250 µg/mL (≈ 538 µM) | inactive | 250 µg/mL (≈ 538 µM) | inactive | 7.08 | 125 (≈ 269 µM) | inactive | 250 µg/mL (≈ 538 µM) | inactive | inactive | 125 µg/mL (≈ 269 µM) | 250 µg/mL (≈ 538 µM) | 250 µg/mL (≈ 538 µM) | 250 µg/mL (≈ 538 µM) | inactive | inactive | inactive | 250 µg/mL (≈ 538 µM)
Cc1cccc(CN2c3ccccc3C3(Cc4cccc(C)c4)CCN(C(=O)C(C)C)C23)c1 (stereo not drawn) | 250 µg/mL (≈ 570 µM) | inactive | 125 µg/mL (≈ 285 µM) | inactive | 13.6 | 250 (≈ 570 µM) | inactive | 250 µg/mL (≈ 570 µM) | inactive | 15.6 µg/mL (≈ 35.6 µM) | 250 µg/mL (≈ 570 µM) | 250 µg/mL (≈ 570 µM) | inactive | 250 µg/mL (≈ 570 µM) | inactive | inactive | 250 µg/mL (≈ 570 µM) | 250 µg/mL (≈ 570 µM)
Cc1cccc(CN2c3ccccc3C3(Cc4cccc(C)c4)CCN(C(=O)c4ccccc4)C23)c1 (stereo not drawn) | 250 µg/mL (≈ 529 µM) | 62.5 µg/mL (≈ 132 µM) | 250 µg/mL (≈ 529 µM) | 250 µg/mL (≈ 529 µM) | 45.1 | 31.2 (≈ 66.1 µM) | inactive | 250 µg/mL (≈ 529 µM) | inactive | inactive | inactive | inactive | inactive | 62.5 µg/mL (≈ 132 µM) | inactive | inactive | inactive | 250 µg/mL (≈ 529 µM)
CCCCC(=O)N1CCCC2(O)c3ccccc3N(C)C12 (stereo not drawn) | inactive | inactive | inactive | inactive | 27.4 | 250 (≈ 867 µM) | 62.5 µg/mL (≈ 217 µM) | inactive | inactive | inactive | inactive | inactive | inactive | inactive | 125 µg/mL (≈ 433 µM) | 250 µg/mL (≈ 867 µM) | 250 µg/mL (≈ 867 µM) | inactive
CN1c2ccccc2C2(O)CCCN(C(=O)c3ccccc3F)C12 (stereo not drawn) | inactive | inactive | inactive | inactive | 0.98 | 125 (≈ 383 µM) | 125 µg/mL (≈ 383 µM) | inactive | inactive | inactive | inactive | inactive | inactive | inactive | inactive | 250 µg/mL (≈ 766 µM) | 250 µg/mL (≈ 766 µM) | inactive
CCCCCC(=O)N1CCC2(Cc3cccc(C)c3)c3ccccc3N(Cc3cccc(C)c3)C12 (stereo not drawn) | 250 µg/mL (≈ 536 µM) | inactive | 125 µg/mL (≈ 268 µM) | 250 µg/mL (≈ 536 µM) | 142 | 15.6 (≈ 33.5 µM) | 250 µg/mL (≈ 536 µM) | 250 µg/mL (≈ 536 µM) | inactive | 250 µg/mL (≈ 536 µM) | 250 µg/mL (≈ 536 µM) | 250 µg/mL (≈ 536 µM) | inactive | 125 µg/mL (≈ 268 µM) | inactive | 125 µg/mL (≈ 268 µM) | inactive | 250 µg/mL (≈ 536 µM)
CCCCC(=O)N1CCC2(Cc3cccc(C)c3)c3ccccc3N(Cc3cccc(C)c3)C12 (stereo not drawn) | 250 µg/mL (≈ 552 µM) | inactive | 125 µg/mL (≈ 276 µM) | 250 µg/mL (≈ 552 µM) | 0.133 | 31.2 (≈ 69 µM) | 250 µg/mL (≈ 552 µM) | 250 µg/mL (≈ 552 µM) | inactive | 250 µg/mL (≈ 552 µM) | 250 µg/mL (≈ 552 µM) | 250 µg/mL (≈ 552 µM) | inactive | 250 µg/mL (≈ 552 µM) | 250 µg/mL (≈ 552 µM) | 125 µg/mL (≈ 276 µM) | 250 µg/mL (≈ 552 µM) | inactive
CCC(=O)N1CCC2(Cc3cccc(C)c3)c3ccccc3N(Cc3cccc(C)c3)C12 (stereo not drawn) | 250 µg/mL (≈ 589 µM) | inactive | 125 µg/mL (≈ 294 µM) | inactive | 0.919 | 250 (≈ 589 µM) | inactive | 125 µg/mL (≈ 294 µM) | inactive | 31.2 µg/mL (≈ 73.6 µM) | 250 µg/mL (≈ 589 µM) | 250 µg/mL (≈ 589 µM) | 250 µg/mL (≈ 589 µM) | 62.5 µg/mL (≈ 147 µM) | 62.5 µg/mL (≈ 147 µM) | inactive | 250 µg/mL (≈ 589 µM) | 250 µg/mL (≈ 589 µM)
COc1ccc(C(=O)N2CCC3(Cc4cccc(C)c4)c4ccccc4N(Cc4cccc(C)c4)C23)cc1 (stereo not drawn) | 250 µg/mL (≈ 497 µM) | inactive | 250 µg/mL (≈ 497 µM) | 250 µg/mL (≈ 497 µM) | 2.81 | 125 (≈ 249 µM) | inactive | 250 µg/mL (≈ 497 µM) | inactive | inactive | inactive | inactive | inactive | 250 µg/mL (≈ 497 µM) | inactive | inactive | inactive | inactive
CCCCCCC(=O)N1CCC2(Cc3ccccc3C)c3ccccc3N(Cc3ccccc3C)C12 (stereo not drawn) | 250 µg/mL (≈ 520 µM) | 250 µg/mL (≈ 520 µM) | 125 µg/mL (≈ 260 µM) | 125 µg/mL (≈ 260 µM) | 90.8 | 62.5 (≈ 130 µM) | 125 µg/mL (≈ 260 µM) | 250 µg/mL (≈ 520 µM) | inactive | inactive | 250 µg/mL (≈ 520 µM) | 250 µg/mL (≈ 520 µM) | 125 µg/mL (≈ 260 µM) | 62.5 µg/mL (≈ 130 µM) | inactive | 250 µg/mL (≈ 520 µM) | 250 µg/mL (≈ 520 µM) | 250 µg/mL (≈ 520 µM)

Reference: ChEMBL document CHEMBL4304804, “Synthesis and biological evaluation of calycanthaceous alkaloid analogs” (Bioorg Med Chem, 2019)
